{"source": "patent US7419995B2", "about": "“N-substituted benzimidazoyl c-Kit inhibitors and combinatorial benzimidazole library” (OSI Pharmaceuticals, Inc., priority 2004, dated 2008)", "origin": "cited, not measured here", "system": "MO7e human leukemia cells", "note": "Where a name gives a salt, the structure may show the parent alone."}
{"smiles": "Cc1ccc(NC(=O)c2ccc(CN3CCN(C)CC3)cc2)cc1Nc1nccc(-c2cccnc2)n1", "note": "[Gleevec, imatinib mesylate]", "values": [{"measurement": "GM-CSF stimulated growth of MO7e cells", "setting": "GM-CSF stimulated", "result": "not affected"}, {"measurement": "Kit ligand-stimulated growth of MO7e cells", "setting": "Kit ligand-stimulated", "result": "inhibited"}, {"measurement": "apoptosis of MO7e cells", "setting": "Kit ligand-stimulated conditions", "result": "induces apoptosis"}]}
